Test results taken from ChEMBL document CHEMBL1146379, “Solid phase synthesis and SAR of small molecule agonists for the GPR40 receptor” (Bioorg Med Chem Lett, 2007).
pEC50, pIC50, pKi: −log10 of the molar value. ≈ marks a conversion by molar mass, not a printed value.

Assays:
[1] = Volume of distribution at steady state in rat; type: ADME, organism-based; conditions: in vivo, read-out: Vdss
[2] = Half life in iv dosed rat; type: ADME, organism-based; conditions: in vivo
[3] = biological target: T1, Free fatty acid receptor 1 (Homo sapiens, UniProt O14842); assay: Agonist activity at GPR40 receptor; type: functional
T1 sequence (O14842 whole entry): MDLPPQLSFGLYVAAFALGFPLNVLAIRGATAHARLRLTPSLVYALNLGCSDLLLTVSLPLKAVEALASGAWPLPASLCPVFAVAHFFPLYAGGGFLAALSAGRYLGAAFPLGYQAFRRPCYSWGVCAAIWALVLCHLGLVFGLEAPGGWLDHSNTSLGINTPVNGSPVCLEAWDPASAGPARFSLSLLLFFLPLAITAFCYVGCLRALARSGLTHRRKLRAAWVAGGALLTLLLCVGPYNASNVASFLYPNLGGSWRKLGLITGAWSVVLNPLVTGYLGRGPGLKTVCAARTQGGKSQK

[4] = Solubility at pH 7.4; type: physicochemical; conditions: buffer
[5] = Distribution coefficient, log D at pH 7.4; type: physicochemical; conditions: octanol/water
[6] = biological target: T1, Free fatty acid receptor 1; assay: Agonist activity at GPR40 receptor expressed in CHO cells by reporter gene assay; type: functional, cell-based
[7] = biological target: T2, Free fatty acid receptor 3 (Homo sapiens, UniProt O14843); assay: Activity at GPR41 receptor
T2 sequence (O14843 whole entry): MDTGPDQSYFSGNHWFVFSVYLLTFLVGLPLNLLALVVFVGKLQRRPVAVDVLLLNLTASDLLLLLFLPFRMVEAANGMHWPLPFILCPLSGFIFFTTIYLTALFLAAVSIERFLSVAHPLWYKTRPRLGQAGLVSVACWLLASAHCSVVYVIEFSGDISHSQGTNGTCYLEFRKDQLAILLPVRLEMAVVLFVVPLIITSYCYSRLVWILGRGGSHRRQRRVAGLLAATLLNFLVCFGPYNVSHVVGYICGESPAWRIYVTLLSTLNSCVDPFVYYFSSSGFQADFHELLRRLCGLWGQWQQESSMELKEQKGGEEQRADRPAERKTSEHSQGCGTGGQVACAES

[8] = biological target: Sphingosine 1-phosphate receptor 1 (Homo sapiens, UniProt P21453); assay: Activity at S1P1 receptor
Chain of Sphingosine 1-phosphate receptor 1 (P21453 whole entry): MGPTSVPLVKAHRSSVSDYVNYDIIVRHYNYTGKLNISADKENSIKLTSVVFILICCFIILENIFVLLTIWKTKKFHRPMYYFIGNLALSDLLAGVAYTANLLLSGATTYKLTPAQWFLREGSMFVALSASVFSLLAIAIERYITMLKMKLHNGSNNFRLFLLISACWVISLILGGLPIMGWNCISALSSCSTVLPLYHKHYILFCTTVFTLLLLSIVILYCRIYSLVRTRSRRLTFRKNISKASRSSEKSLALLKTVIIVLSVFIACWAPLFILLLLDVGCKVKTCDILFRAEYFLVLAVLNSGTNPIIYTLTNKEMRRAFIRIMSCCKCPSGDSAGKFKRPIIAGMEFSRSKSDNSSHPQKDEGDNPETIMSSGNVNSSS

[9] = biological target: Hydroxycarboxylic acid receptor 2 (Homo sapiens, UniProt Q8TDS4); assay: Activity at HM74A receptor
Chain of Hydroxycarboxylic acid receptor 2 (Q8TDS4 whole entry): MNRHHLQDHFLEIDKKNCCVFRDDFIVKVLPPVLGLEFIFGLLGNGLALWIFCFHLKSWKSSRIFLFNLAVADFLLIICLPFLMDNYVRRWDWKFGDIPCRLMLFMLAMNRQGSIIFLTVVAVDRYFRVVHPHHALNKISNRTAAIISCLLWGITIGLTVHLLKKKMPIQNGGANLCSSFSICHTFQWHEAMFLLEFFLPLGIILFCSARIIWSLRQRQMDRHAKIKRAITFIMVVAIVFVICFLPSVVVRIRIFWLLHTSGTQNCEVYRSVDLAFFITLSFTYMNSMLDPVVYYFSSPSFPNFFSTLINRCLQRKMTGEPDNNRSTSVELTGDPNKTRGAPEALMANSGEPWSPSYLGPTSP

[10] = biological target: T3, Prostaglandin E2 receptor EP1 subtype (Homo sapiens, UniProt P34995); assay: Activity at EP1 receptor
T3 sequence (P34995 whole entry): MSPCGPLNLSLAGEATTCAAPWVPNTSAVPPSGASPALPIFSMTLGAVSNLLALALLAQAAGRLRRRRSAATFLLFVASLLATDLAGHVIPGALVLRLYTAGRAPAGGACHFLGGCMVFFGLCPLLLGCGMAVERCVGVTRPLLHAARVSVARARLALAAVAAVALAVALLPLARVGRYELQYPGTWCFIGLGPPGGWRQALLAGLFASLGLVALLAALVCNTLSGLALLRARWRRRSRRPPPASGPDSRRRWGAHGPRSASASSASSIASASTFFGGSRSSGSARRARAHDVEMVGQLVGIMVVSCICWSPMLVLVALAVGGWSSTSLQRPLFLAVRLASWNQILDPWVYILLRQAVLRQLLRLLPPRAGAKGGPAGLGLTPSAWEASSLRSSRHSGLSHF

Cytochrome P450 2C9 = Cytochrome P450 2C9 (Homo sapiens, UniProt P11712); assay: Inhibition of CYP2C9; type: ADME
Chain of Cytochrome P450 2C9 (P11712 whole entry): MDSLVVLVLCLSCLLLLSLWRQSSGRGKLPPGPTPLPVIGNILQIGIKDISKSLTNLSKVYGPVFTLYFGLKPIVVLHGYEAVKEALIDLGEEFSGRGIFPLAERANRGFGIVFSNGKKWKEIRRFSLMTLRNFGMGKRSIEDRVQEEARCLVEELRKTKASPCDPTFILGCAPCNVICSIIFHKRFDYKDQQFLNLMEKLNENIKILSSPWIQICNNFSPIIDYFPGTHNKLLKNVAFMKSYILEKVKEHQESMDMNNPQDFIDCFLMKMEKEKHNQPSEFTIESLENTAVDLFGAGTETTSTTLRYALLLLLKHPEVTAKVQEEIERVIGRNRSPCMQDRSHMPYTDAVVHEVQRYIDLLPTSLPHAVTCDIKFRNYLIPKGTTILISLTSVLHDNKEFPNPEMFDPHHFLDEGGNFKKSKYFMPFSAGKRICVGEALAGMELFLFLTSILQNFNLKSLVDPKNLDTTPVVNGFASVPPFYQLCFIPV

Cytochrome P450 2C19 = Cytochrome P450 2C19 (Homo sapiens, UniProt P33261); assay: Inhibition of CYP2C19; type: ADME
Chain of Cytochrome P450 2C19 (P33261 whole entry): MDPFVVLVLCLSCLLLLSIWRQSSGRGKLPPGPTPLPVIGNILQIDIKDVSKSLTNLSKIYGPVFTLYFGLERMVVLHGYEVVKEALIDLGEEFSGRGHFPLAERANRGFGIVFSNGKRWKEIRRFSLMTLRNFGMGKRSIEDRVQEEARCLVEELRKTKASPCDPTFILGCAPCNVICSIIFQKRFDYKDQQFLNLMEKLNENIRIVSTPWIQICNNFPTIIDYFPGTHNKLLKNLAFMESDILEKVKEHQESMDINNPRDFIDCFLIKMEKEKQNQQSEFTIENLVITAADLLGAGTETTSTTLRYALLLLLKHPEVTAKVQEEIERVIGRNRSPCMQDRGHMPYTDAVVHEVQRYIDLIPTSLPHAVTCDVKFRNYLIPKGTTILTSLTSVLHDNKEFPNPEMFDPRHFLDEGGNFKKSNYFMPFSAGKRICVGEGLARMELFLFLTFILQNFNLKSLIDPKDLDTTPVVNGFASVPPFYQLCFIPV

Cytochrome P450 2D6 = Cytochrome P450 2D6 (Homo sapiens, UniProt P10635); assay: Inhibition of CYP2D6; type: ADME
Chain of Cytochrome P450 2D6 (P10635 whole entry): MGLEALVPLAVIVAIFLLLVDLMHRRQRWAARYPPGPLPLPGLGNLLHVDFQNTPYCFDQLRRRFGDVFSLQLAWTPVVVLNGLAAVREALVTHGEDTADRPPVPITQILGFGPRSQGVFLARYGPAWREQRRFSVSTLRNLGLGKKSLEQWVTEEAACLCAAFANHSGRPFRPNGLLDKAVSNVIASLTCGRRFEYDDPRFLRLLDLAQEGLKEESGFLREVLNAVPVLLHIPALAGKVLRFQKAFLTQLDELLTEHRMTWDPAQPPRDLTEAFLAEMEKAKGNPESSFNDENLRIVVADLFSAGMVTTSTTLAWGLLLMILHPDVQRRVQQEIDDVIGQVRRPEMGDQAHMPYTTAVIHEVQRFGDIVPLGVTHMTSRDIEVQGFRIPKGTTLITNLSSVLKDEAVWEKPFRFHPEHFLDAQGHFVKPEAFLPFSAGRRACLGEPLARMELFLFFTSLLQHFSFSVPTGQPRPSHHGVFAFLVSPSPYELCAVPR

Cytochrome P450 3A4 = Cytochrome P450 3A4 (Homo sapiens, UniProt P08684); assay: Inhibition of CYP3A4; type: ADME
Chain of Cytochrome P450 3A4 (P08684 whole entry): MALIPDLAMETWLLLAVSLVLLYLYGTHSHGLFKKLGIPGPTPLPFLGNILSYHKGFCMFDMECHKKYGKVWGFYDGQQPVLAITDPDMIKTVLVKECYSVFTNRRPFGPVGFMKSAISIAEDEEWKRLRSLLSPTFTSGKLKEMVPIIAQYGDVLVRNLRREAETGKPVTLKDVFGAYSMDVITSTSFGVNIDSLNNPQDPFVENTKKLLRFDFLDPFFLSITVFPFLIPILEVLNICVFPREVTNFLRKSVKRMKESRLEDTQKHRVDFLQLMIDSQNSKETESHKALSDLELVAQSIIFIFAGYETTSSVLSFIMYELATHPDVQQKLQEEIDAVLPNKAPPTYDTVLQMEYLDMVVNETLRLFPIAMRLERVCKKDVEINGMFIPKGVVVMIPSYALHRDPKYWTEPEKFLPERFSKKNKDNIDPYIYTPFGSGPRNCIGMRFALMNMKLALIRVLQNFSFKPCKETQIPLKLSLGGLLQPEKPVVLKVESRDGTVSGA

[11] = Protein binding in rat plasma by ultrafiltration assay; type: ADME, cell-free; conditions: read-out: PB

Vd [1]: 4.7 L/kg
half-life [2]: 5.3 h
pEC50 [3]: 7.10
solubility [4]: 290 µg/mL (≈ 835 µM)
logD [5]: 1.95
%max [6]: 69%
pEC50 [7]: < 4.30
pEC50 [8]: < 4.50
pEC50 [9]: < 5.20
pKi [10]: < 5.80
pIC50 (Cytochrome P450 2C9): < 4.48
pIC50 (Cytochrome P450 2C19): < 4.48
pIC50 (Cytochrome P450 2D6): < 4.48
pIC50 (Cytochrome P450 3A4): < 4.48
fraction unbound [11]: < 0.004
Structure (SMILES): O=C(O)CCc1ccc(NCc2cccc(Oc3ccccc3)c2)cc1 [GW9508]
